Results on 29 molecules are retold here after patent publication US20250326732A1 (Pretzel Therapeutics, Inc., priority 2021, published 2025).

In this test the target is POLRMT (Homo sapiens (Human), UniProt O00411). In words: homogeneous TR-FRET assay of mitochondrial transcription (inhibition of POLRMT). As to conditions: 7.5 nM POLRMT, 15 nM TFB2M, 30 nM TFAM, 0.5 nM DNA template, 500 μM NTPs, 37° C. for 60 minutes. It counts as biochemical. In short, it runs like this: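 POLRMT transcription from linearized pUC-LSP DNA template; RNA product detected by hybridization of ATTO647 acceptor (1 nM) and biotinylated donor (3 nM) probes plus Europium-streptavidin. Reaction stopped with EDTA/700 mM NaCl buffer, pH 7.5.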
POLRMT, sequence (O00411 42-1230): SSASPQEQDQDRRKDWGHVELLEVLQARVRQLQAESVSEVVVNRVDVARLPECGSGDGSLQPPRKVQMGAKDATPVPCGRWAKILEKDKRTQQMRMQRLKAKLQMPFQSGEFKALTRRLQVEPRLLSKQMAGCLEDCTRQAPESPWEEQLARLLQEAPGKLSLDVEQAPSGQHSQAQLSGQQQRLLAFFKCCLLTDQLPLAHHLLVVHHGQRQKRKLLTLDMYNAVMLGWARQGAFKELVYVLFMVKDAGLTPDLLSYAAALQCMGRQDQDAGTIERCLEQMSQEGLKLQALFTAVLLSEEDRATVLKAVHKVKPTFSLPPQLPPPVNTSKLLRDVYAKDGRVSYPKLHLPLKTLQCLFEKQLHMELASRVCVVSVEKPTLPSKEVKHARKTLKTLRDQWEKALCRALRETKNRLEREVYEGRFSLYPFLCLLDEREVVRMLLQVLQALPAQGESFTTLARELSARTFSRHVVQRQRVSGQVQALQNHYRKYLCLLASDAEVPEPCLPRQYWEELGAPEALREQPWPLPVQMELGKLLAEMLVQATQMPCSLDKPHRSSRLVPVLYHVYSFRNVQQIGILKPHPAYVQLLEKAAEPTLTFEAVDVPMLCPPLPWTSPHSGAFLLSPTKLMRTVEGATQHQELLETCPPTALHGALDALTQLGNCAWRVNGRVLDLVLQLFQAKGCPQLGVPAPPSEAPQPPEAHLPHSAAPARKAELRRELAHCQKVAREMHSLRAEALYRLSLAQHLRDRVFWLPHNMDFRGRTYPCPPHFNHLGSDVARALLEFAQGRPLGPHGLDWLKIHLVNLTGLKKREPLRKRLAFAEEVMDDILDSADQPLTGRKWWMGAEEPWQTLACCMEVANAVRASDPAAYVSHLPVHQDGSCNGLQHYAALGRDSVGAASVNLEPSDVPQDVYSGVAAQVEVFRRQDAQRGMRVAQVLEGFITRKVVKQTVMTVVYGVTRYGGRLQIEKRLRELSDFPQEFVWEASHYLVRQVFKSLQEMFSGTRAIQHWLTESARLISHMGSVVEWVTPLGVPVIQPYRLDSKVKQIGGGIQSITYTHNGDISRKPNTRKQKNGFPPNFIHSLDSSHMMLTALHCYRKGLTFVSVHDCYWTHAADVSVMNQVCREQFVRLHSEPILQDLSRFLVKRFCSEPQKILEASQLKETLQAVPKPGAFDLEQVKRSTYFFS

On to `COC(=O)CN(C)c1ccc2c(-c3ccccc3C)cc(=O)oc2c1` [Example 143, methyl N-methyl-N-(2-oxo-4-(o-tolyl)-2H-chromen-7-yl)glycinate], for which it took 30 nM to reach half-maximal inhibition (IC50).

Take `Cc1ccccc1-c1cc(=O)oc2cc(N(C)CCC(=O)O)ccc12` [Example 144, 3-(methyl(2-oxo-4-(o-tolyl)-2H-chromen-7-yl)amino)propanoic acid]: half-maximal inhibition (IC50) was put at 100 nM.

As to `Cc1ccccc1-c1cc(=O)oc2cc(NCCC(=O)O)ccc12` [Example 145, 3-((2-oxo-4-(o-tolyl)-2H-chromen-7-yl)amino)propanoic acid], the IC50 (as a rule, the concentration that inhibits the measured activity by half) turned out to be 4000 nM.

Molecule `Cc1ccccc1-c1cc(=O)oc2cc(CN(C)C(=O)N3CCC[C@H](C(=O)O)C3)ccc12` [Example 146, (S)-1-(methyl((2-oxo-4-(o-tolyl)-2H-chromen-7-yl)methyl)carbamoyl)piperidine-3-carboxylic acid] showed an IC50 of 300 nM.

As for `Cc1ccccc1-c1cc(=O)oc2cc(CN(C)C(=O)N3CCC(C(=O)O)CC3)ccc12` [Example 147, 1-(methyl((2-oxo-4-(o-tolyl)-2H-chromen-7-yl)methyl)carbamoyl)piperidine-4-carboxylic acid], half-maximal inhibition (IC50) was put at 300 nM. That is a sub-micromolar value.

Molecule `Cc1ccccc1-c1cc(=O)oc2cc(N[C@H](C)CC(=O)O)ccc12` [Example 148, (R)-3-((2-oxo-4-(o-tolyl)-2H-chromen-7-yl)amino)butanoic acid] yielded an IC50 of 2000 nM.

As to `Cc1ccccc1-c1cc(=O)oc2cc(N[C@@H](C)CC(=O)O)ccc12` [Example 149, (S)-3-((2-oxo-4-(o-tolyl)-2H-chromen-7-yl)amino)butanoic acid], the IC50 was 1000 nM.

For `Cc1ccccc1-c1cc(=O)oc2cc(CNC(=O)N3CCC[C@H](C(=O)O)C3)ccc12` [Example 150, (S)-1-(((2-oxo-4-(o-tolyl)-2H-chromen-7-yl)methyl)carbamoyl)piperidine-3-carboxylic acid], inhibition was half-maximal at 2000 nM (IC50).

For `Cc1ccccc1-c1cc(=O)oc2cc(CNC(=O)N3CCC(C(=O)O)CC3)ccc12` [Example 151, 1-(((2-oxo-4-(o-tolyl)-2H-chromen-7-yl)methyl)carbamoyl)piperidine-4-carboxylic acid], the IC50 came to 3000 nM. This IC50 lies about 1.5-fold higher than the previous one.

As for `Cc1ccccc1-c1cc(=O)oc2cc(CNC(=O)C3CCC(C(=O)O)CC3)ccc12` [Example 152, (1R,4R)-4-(((2-oxo-4-(o-tolyl)-2H-chromen-7-yl)methyl)carbamoyl)cyclohexane-1-carboxylic acid], the IC50 worked out at 300 nM.

Molecule `Cc1ccccc1-c1cc(=O)oc2cc(CNC(=O)C3CCC(C(=O)O)CC3)ccc12` (centres unmarked) [Example 153, 4-(((2-oxo-4-(o-tolyl)-2H-chromen-7-yl)methyl)carbamoyl)cyclohexane-1-carboxylic acid] registered an IC50 of 200 nM.

Regarding `Cc1ccccc1-c1cc(=O)oc2cc(N(C)CC(C)C(=O)O)ccc12` (centres unmarked) [Example 155-2], half-maximal inhibition (IC50) was put at 400 nM.

Turning to `Cc1ccccc1-c1cc(=O)oc2cc(CN(C)C(=O)C3CCC(C(=O)O)CC3)ccc12` [Example 156, (1R,4R)-4-(methyl((2-oxo-4-(o-tolyl)-2H-chromen-7-yl)methyl)carbamoyl)cyclohexane-1-carboxylic acid], half-maximal inhibition (IC50) was put at 200 nM.

On to `Cc1ccccc1-c1cc(=O)oc2cc(CNC(=O)C3CCC(C(=O)O)CC3)ccc12` [Example 157, (1S,4S)-4-(((2-oxo-4-(o-tolyl)-2H-chromen-7-yl)methyl)carbamoyl)cyclohexane-1-carboxylic acid], for which half-maximal inhibition (IC50) was put at 2000 nM. Against the preceding molecule, the IC50 is about 10-fold higher.

Turning to `Cc1ccccc1-c1cc(=O)oc2cc(CN(C)C(=O)C3CCC(C(=O)O)CC3)ccc12` [Example 158, (1S,4S)-4-(methyl((2-oxo-4-(o-tolyl)-2H-chromen-7-yl)methyl)carbamoyl)cyclohexane-1-carboxylic acid], the IC50 turned out to be 800 nM.

`CCOC(=O)[C@H]1CCCN(C(=O)[C@@H](C)Oc2cc(C)cc3oc(=O)cc(-c4ccc(F)cc4)c23)C1` [Example 159, ethyl (S)-1-((R)-2-((4-(4-fluorophenyl)-7-methyl-2-oxo-2H-chromen-5-yl)oxy)propanoyl)piperidine-3-carboxylate] had an IC50 of more than 100000 nM.

Turning to `Cc1cc(O[C@H](C)C(=O)N2CCC[C@H](C(=O)O)C2)c2c(-c3ccc(F)cc3)cc(=O)oc2c1` [Example 160, (S)-1-((R)-2-((4-(4-fluorophenyl)-7-methyl-2-oxo-2H-chromen-5-yl)oxy)propanoyl)piperidine-3-carboxylic acid], the IC50 is more than 100000 nM.

As to `Cc1cc(O[C@H](C)C(=O)N2CCCCC2)c2c(-c3ccc(F)cc3)cc(=O)oc2c1` [Example 161, (R)-4-(4-fluorophenyl)-7-methyl-5-((1-oxo-1-(piperidin-1-yl)propan-2-yl)oxy)-2H-chromen-2-one], the IC50 is more than 100000 nM.

Molecule `Cc1cc(O[C@H](C)C(=O)N(C)C)c2c(-c3ccc(F)cc3)cc(=O)oc2c1` [Example 162, (R)-2-((4-(4-fluorophenyl)-7-methyl-2-oxo-2H-chromen-5-yl)oxy)-N,N-dimethylpropanamide] displayed an IC50 of more than 100000 nM.

`COCc1cc(C)c2c(-c3ccccc3C)cc(=O)oc2c1` [Example 163, 7-(methoxymethyl)-5-methyl-4-(o-tolyl)-2H-chromen-2-one] showed an IC50 of 500 nM. This counts as sub-micromolar.

`Cc1ccccc1-c1cc(=O)oc2cc(NCc3ccccn3)ccc12` [Example 164, 7-((pyridin-2-ylmethyl)amino)-4-(o-tolyl)-2H-chromen-2-one]: the IC50 worked out at 4000 nM.

As for `Cc1ccccc1-c1cc(=O)oc2cc(NCc3nccs3)ccc12` [Example 165, 7-((thiazol-2-ylmethyl)amino)-4-(o-tolyl)-2H-chromen-2-one], the IC50 is 3000 nM.

In turn, `Cc1ccccc1-c1cc(=O)oc2cc(NCc3ncco3)ccc12` [Example 166, 7-((oxazol-2-ylmethyl)amino)-4-(o-tolyl)-2H-chromen-2-one] came in with an IC50 of 5000 nM.

With `Cc1ccccc1-c1cc(=O)oc2cc(N(C)Cc3nccs3)ccc12` [Example 167, 7-(methyl(thiazol-2-ylmethyl)amino)-4-(o-tolyl)-2H-chromen-2-one], the IC50 was 100 nM. This IC50 is about 50-fold lower than that of the molecule before.

As for `Cc1ccccc1-c1cc(=O)oc2cc(N(C)Cc3ccccn3)ccc12` [Example 168, 7-(methyl(pyridin-2-ylmethyl)amino)-4-(o-tolyl)-2H-chromen-2-one], the IC50 was found to be 90 nM.

As to `Cc1ccccc1-c1cc(=O)oc2cc(NCc3ccn[nH]3)ccc12` [Example 169, 7-(((1H-pyrazol-5-yl)methyl)amino)-4-(o-tolyl)-2H-chromen-2-one], inhibition was half-maximal at 3000 nM (IC50).

`Cc1ccccc1-c1cc(=O)oc2cc(C(=O)N3CCCC(N(C)C)C3)ccc12` (centres unmarked) [Example 170, 7-(3-(dimethylamino)piperidine-1-carbonyl)-4-(o-tolyl)-2H-chromen-2-one] had an IC50 of more than 100000 nM.

Molecule `CC(=O)N(C)[C@@H]1CCCN(C(=O)c2ccc3c(-c4ccccc4C)cc(=O)oc3c2)C1` [Example 172, (R)—N-methyl-N-(1-(2-oxo-4-(o-tolyl)-2H-chromene-7-carbonyl)piperidin-3-yl)acetamide] yielded an IC50 of more than 100000 nM.

In turn, `CC(=O)N(C)[C@H]1CCCN(C(=O)c2ccc3c(-c4ccccc4C)cc(=O)oc3c2)C1` [Example 173, (S)—N-methyl-N-(1-(2-oxo-4-(o-tolyl)-2H-chromene-7-carbonyl)piperidin-3-yl)acetamide] yielded an IC50 of 73000 nM.
